Reference: patent US10226041B2, “Compositions and methods for improving the quality of processed sperm” (Inguran, LLC, priority 2011, dated 2019)

System: sex-sorted sperm cells
Assay: CASA post-thaw motility of sex sorted bull sperm treated with OSR
Format: cell-based, bovine
Parameters: key to BCF: beat cross frequency in Hz; key to ALH: lateral head displacement in μm; key to STR / LIN: percent; key to Motile: percent motile sperm; key to VAP / VSL / VCL: velocity in μm/s
Settings: 3 step
Text: 5. Sperm Motility Evaluations by CASA. A comparison of viewing chambers and slides can be done in a variety of IVOS instruments, which for example only can be a Hamilton-Thorne IVOS (Hamilton-Thorne, Beverly, Mass.). Instrument settings: image capture; frames per second=60; number of frames=30; cell detection; minimum contrast=50; minimum cell size=5; defaults, cell size=5; cell intensity=50; progressive cells, path velocity=50 um/s; straightness ≥70%; slow cells (um/s); average path velocity (VAP, <30 um/s), straight-line velocity (VSL, <15 um/s). The CASA motility variables measured can be a percentage of total motile sperm (motile), percentage of progressively motile sperm (progressive), VAO, VSL, curvilinear velocity (VCL, um/s), average lateral head displacement (ALK, um) and the number of times the sperm head crosses the mean path/s (BCF, Hz), straight-line sperm motility (STR, %), and linear sperm motility (LIN, %). See for instance, Lenz, R W, et al., J Anim Sci (2011) 89:383-388, incorporated by reference herein in its entirety.
One set of semen from each bull was used as a control while to the remaining sets of semen samples were added vitamin B12, as the antioxidant, at respective concentrations of 0.5 mg/ml and 0.25 mg/ml. For each sample, the same concentration of vitamin B12 was added (i) during the staining process, and (ii) in the catch fluid of the collection vessel. […] Sperm samples were sorted in “High Purity” mode, and the collected sex-sorted sperm were extended with a cryoextender, which in some cases again contained the same concentration of vitamin B12 and the samples were frozen. Three hours after thawing (which is a standard time frame to conduct quality control assessments on sorted frozen thawed sperm samples) the thawed samples were put through CASA, a machine that provides various data on sperm including motility and progressive motility information.
In the tables below: VAP (average path velocity (μm/s)); VSL (straight-line velocity (μm/s)); VCL (curvilinear velocity (μm/s)); ALH (average lateral head displacement (μm)); BCF (the number of times the sperm head crosses the mean path/s in Hz); STR (percent straight-line sperm motility); LIN (percent linear sperm motility); PIA (percent intact acrosomes); motile (percent motile sperm); and progressive (percent progressively motile sperm).
There is no correlation with regard to randomly assigned names such as “Bull A.” Bull A from Example 5 is not the same bull as Bull A from Example 7.
In both cases the concentration of the vitamin B12 was 1 mg/ml. For all other bulls in the table below unless otherwise indicated, the concentration of vitamin B12 added was also 1 mg/ml.
In an additional experiment, motility and progressive motility were checked 3.75 hours after thawing a sex sorted semen sample treated with the antioxidant. The OSR was not added to the control sample. The semen sample was derived from a single bull. 0.25 mg/ml concentration of vitamin B12 was added to the test sample during the staining step, the collecting step (in the catch fluid of the collecting vessel) and in the cryoprotectant extender prior to freezing the sample.
[…] The OSR was not added to the control samples. The semen samples were derived from two Holstein bulls.

[1] = Holstein 0 hr post-thaw, .25 mg/ml
[2] = Holstein 0 hr post-thaw, .35 mg/ml
[3] = Holstein 0 hr post-thaw, .45 mg/ml
[4] = Holstein 3 hr post-thaw (1st block), .25 mg/ml
[5] = Holstein 3 hr post-thaw (1st block), .35 mg/ml
[6] = Holstein 3 hr post-thaw (1st block), .45 mg/ml
[7] = Holstein 3 hr post-thaw (2nd block), .25 mg/ml
[8] = Holstein 3 hr post-thaw (2nd block), .35 mg/ml
[9] = Holstein 3 hr post-thaw (2nd block), .45 mg/ml
[10] = Holstein 6 hr post-thaw (1st block), .25 mg/ml
[11] = Holstein 6 hr post-thaw (1st block), .35 mg/ml
[12] = Holstein 6 hr post-thaw (1st block), .45 mg/ml
[13] = Holstein 6 hr post-thaw (2nd block), .25 mg/ml
[14] = Holstein 6 hr post-thaw (2nd block), .35 mg/ml
[15] = Holstein 6 hr post-thaw (2nd block), .45 mg/ml
[16] = Jersey 0 hr post-thaw, .25 mg/ml
[17] = Jersey 0 hr post-thaw, .35 mg/ml
[18] = Jersey 0 hr post-thaw, .45 mg/ml
[19] = Jersey 3 hr post-thaw, .25 mg/ml
[20] = Jersey 3 hr post-thaw, .35 mg/ml
[21] = Jersey 3 hr post-thaw, .45 mg/ml

`O=C(O)CCC(=O)C(=O)O` [AKG, Alpha-ketoglutarate] showed an ALH [1] of 8, a BCF [1] of 27 and an LIN [1] of 48. For the same compound, the Motile [1] was 91, the Prog [1] was 75 and the STR [1] was 82. The VAP [1] was 104, the VCL [1] was 185 and the VSL [1] was 81. It also gave an ALH [2] of 7, a BCF [2] of 29 and an LIN [2] of 51. For the same compound, the Motile [2] was 80, the Prog [2] was 65 and the STR [2] was 85. For the same compound, the VAP [2] was 94, the VCL [2] was 165 and the VSL [2] was 80. For the same compound, the ALH [3] was 7, the BCF [3] was 30 and the LIN [3] was 57. The Motile [3] was 86, the Prog [3] was 75 and the STR [3] was 89. For the same compound, the VAP [3] was 98, the VCL [3] was 162 and the VSL [3] was 88. For the same compound, the ALH [4] was 7, the BCF [4] was 26 and the LIN [4] was 45. It also gave a Motile [4] of 77, a Prog [4] of 60 and an STR [4] of 81. The VAP [4] was 99, the VCL [4] was 176 and the VSL [4] was 79. The ALH [5] was 6, the BCF [5] was 25 and the LIN [5] was 50. The Motile [5] was 63, the Prog [5] was 48 and the STR [5] was 83. For the same compound, the VAP [5] was 85, the VCL [5] was 145 and the VSL [5] was 70. It also gave an ALH [6] of 5, a BCF [6] of 24 and an LIN [6] of 56. For the same compound, the Motile [6] was 60, the Prog [6] was 56 and the STR [6] was 85. It also gave a VAP [6] of 94, a VCL [6] of 145 and a VSL [6] of 80. The ALH [7] was 6, the BCF [7] was 26 and the LIN [7] was 47. It also gave a Motile [7] of 71, a Prog [7] of 55 and an STR [7] of 81. For the same compound, the VAP [7] was 96, the VCL [7] was 169 and the VSL [7] was 77. For the same compound, the ALH [8] was 5, the BCF [8] was 21 and the LIN [8] was 50. For the same compound, the Motile [8] was 64, the Prog [8] was 38 and the STR [8] was 84. For the same compound, the VAP [8] was 69, the VCL [8] was 117 and the VSL [8] was 57. It also gave an ALH [9] of 6, a BCF [9] of 25 and an LIN [9] of 53. The Motile [9] was 60, the Prog [9] was 50 and the STR [9] was 84. It also gave a VAP [9] of 90, a VCL [9] of 144 and a VSL [9] of 75. The ALH [10] was 6, the BCF [10] was 17 and the LIN [10] was 39. It also gave a Motile [10] of 36, a Prog [10] of 7 and an STR [10] of 76. For the same compound, the VAP [10] was 44, the VCL [10] was 87 and the VSL [10] was 33. The ALH [11] was 7, the BCF [11] was 16 and the LIN [11] was 40. The Motile [11] was 58, the Prog [11] was 7 and the STR [11] was 76. It also gave a VAP [11] of 42, a VCL [11] of 80 and a VSL [11] of 32. It also gave an ALH [12] of 5, a BCF [12] of 22 and an LIN [12] of 48. For the same compound, the Motile [12] was 52, the Prog [12] was 22 and the STR [12] was 82. For the same compound, the VAP [12] was 55, the VCL [12] was 96 and the VSL [12] was 46. The ALH [13] was 6, the BCF [13] was 17 and the LIN [13] was 39. For the same compound, the Motile [13] was 36, the Prog [13] was 7 and the STR [13] was 76. The VAP [13] was 44, the VCL [13] was 87 and the VSL [13] was 33. It also gave an ALH [14] of 7, a BCF [14] of 16 and an LIN [14] of 40. For the same compound, the Motile [14] was 58, the Prog [14] was 7 and the STR [14] was 76. It also gave a VAP [14] of 42, a VCL [14] of 80 and a VSL [14] of 32. For the same compound, the ALH [15] was 5, the BCF [15] was 22 and the LIN [15] was 48. It also gave a Motile [15] of 52, a Prog [15] of 22 and an STR [15] of 82. The VAP [15] was 55, the VCL [15] was 96 and the VSL [15] was 46. It also gave an ALH [16] of 7, a BCF [16] of 24 and an LIN [16] of 48. It also gave a Motile [16] of 67, a Prog [16] of 51 and an STR [16] of 83. For the same compound, the VAP [16] was 83, the VCL [16] was 152 and the VSL [16] was 68. The ALH [17] was 6, the BCF [17] was 25 and the LIN [17] was 47. For the same compound, the Motile [17] was 57, the Prog [17] was 43 and the STR [17] was 82. It also gave a VAP [17] of 79, a VCL [17] of 146 and a VSL [17] of 63. The ALH [18] was 6, the BCF [18] was 27 and the LIN [18] was 56. The Motile [18] was 81, the Prog [18] was 66 and the STR [18] was 87. For the same compound, the VAP [18] was 81, the VCL [18] was 133 and the VSL [18] was 70. It also gave an ALH [19] of 5, a BCF [19] of 24 and an LIN [19] of 46. For the same compound, the Motile [19] was 33, the Prog [19] was 16 and the STR [19] was 79. The VAP [19] was 65, the VCL [19] was 117 and the VSL [19] was 49. For the same compound, the ALH [20] was 6, the BCF [20] was 25 and the LIN [20] was 45. The Motile [20] was 26, the Prog [20] was 10 and the STR [20] was 80. The VAP [20] was 59, the VCL [20] was 110 and the VSL [20] was 46. The ALH [21] was 6, the BCF [21] was 25 and the LIN [21] was 45. The Motile [21] was 59, the Prog [21] was 25 and the STR [21] was 78. The VAP [21] was 67, the VCL [21] was 66 and the VSL [21] was 50.
